We go through two compounds from US10300029B2, “Organ protection solutions and method of use” (VIRGINIA COMMONWEALTH UNIVERSITY, priority 2011, dated 2019).

For one data set, the system named is shocked rodents. Briefly: Hemorrhagic shock model, low volume resuscitation with gluconate (Example 4). It counts as in vivo. How it is done: Gluconate was administered in the organ protectant solution (e.g., a low volume resuscitation (LVR) solution with cell impermeants according to the present invention) in order to achieve a theoretical gluconate concentration of about 60 mM in the extracellular fluid compartment (subsequent experiments have shown that about 100 mM is probably optimal). The idea of low volume resuscitation is to give the shocked patient small volumes of intravenous fluids to prolong the time on the field to allow for rescue and transport to a forward hospital where more definitive resuscitation can occur (due to fewer resource limitations). The purpose of the addition of the cell impermeants to the LVR solution (usually saline) was to increase this “down time” further, effectively increasing the tolerance to the low flow state and making it more likely that the patient can survive the wait to the hospital. Essentially, the objective is to increase the “Golden Hour”.
In shock experiments, the time that the control animals could remain in the low volume state (after LVR administration) was 64 minutes. […] This means that these subjects were able to stay safely in the low volume state for much longer periods. In practical terms, they can wait longer for transport and full resuscitation, yet presumably have a higher chance of survival.

The test system of another data set is rodent capillaries. On the set-up: species or system rats. The conditions noted are these: rat, in vivo. The procedure: FIG. 10A-D. A) Diagram showing the shock, resuscitation, and recovery protocol used for these studies. The low volume resuscitation (LVR) time is the time from the start of the low volume resuscitation (after the lactate during hemorrhagic shock reaches 9-10 mM) until the time after the LVR infusion when the lactate rises back up to 9-10 mM again. This immediately precedes full resuscitation. The LVR time is a measure of the tolerance to the low volume state and is a function of the microcirculatory effectiveness since it is dependent on the rate of change of the plasma lactate. […] The numbers on the x-axis are the corresponding lactate concentrations in the plasma at the end of the LVR period. Most are close to 10 mM because that was the definition of the end of the LVR period. […] D) The oncotic reflection coefficient (σd) for PEG-20k was measured in six rats to determine the impermeant and the oncotic effects of this molecule in both the mesenteric vascular bed and the thoracic bed. FITC-labeled PEG-20k was used as a tracer molecule and the reflection coefficient was determined by measuring the lymph (L) to plasma (P) concentrations of FITC-PEG after an IV injection of the tracer under conditions of high lymph flow induced by volume loading with I.V. saline infusions (0.25 ml/min). […] FITC-labelled PEG-20k was measured by excitation-emission spectrofluorometry. […]

Data set [1] relates to juvenile swine in hemorrhagic shock. The text has this: Saline control • b. […] Results
The mark [2] stands for this setting: 24 hours after shock and resuscitation, vs controls.

Protocol for normal pig blood: The (A) PT-INR and (B) aPTT effects were determined in both normal pig blood after ex-vivo mixing with PEG-20k LVR solutions (10% dilution) or with a saline control, also at a 10% solution, and after the end of the LVR period in pigs given PEG-20k based LVR solutions.
Juvenile swine (35-40 kn) were anesthetized with Ketamine/Xylazine, and propofol induction followed by isofluorane inhalation anesthesia maintenance (1-2%). A swan-Ganz catheter was introduced into the pulmonary artery via a cut down of the right jugular vein for the continuous measurement of cardiac output, pulmonary artery pressures, and sVO2 (mixed venous O2 saturation) by an optical sensor on the PA catheter. Blood pressure and arterial blood gases were measured by a line in the femoral artery. A line in the carotid artery and contralateral jugular vein was used for bleeding and resuscitation, respectively. […]
Finally, coagulation was determined in both normal pig blood after ex-vivo mixing with PEG-20k LVR solutions (10% dilution) or with a saline control, also at a 10% solution, and after the end of the LVR period in pigs given PEG-20k based LVR solutions.

As to `O=C(O)[C@H](O)[C@@H](O)[C@H](O)[C@H](O)CO` [gluconate], in the data set on shocked rodents (setting [2]), the albumin result is listed as “higher”, the liver enzymes result was “lower” and the metabolic acidosis result is “less”. Also, the LVR time entry in the data set on shocked rodents (gluconate added to LVR solution, theoretical about 60 mM in extracellular fluid) is “over 106 minutes”.
With polyethylene glycol 20,000 [PEG-20k], the “capillary oncotic reflection coefficient” value in the data set on rodent capillaries is “about 0.65”. Besides, in data set [1], the “coagulation (PT-INR, aPTT), in-vivo” value is recorded as “not altered”. Also, in the data set with normal pig blood, the “coagulation (PT-INR, aPTT), ex-vivo mixing test” value is “not altered”.
